Laboratory results from patent publication US9221766B2, “Compounds as diacylglycerol acyltransferase inhibitors” (GlaxoSmithKline LLC, priority 2012, dated 2015).

Target: T1, Human DGAT1 (Homo sapiens, UniProt O75907)
T1 construct: made in house; host or cells: Sf9 insect cells (baculovirus); microsomes used as enzyme
T1 sequence (O75907 1-488): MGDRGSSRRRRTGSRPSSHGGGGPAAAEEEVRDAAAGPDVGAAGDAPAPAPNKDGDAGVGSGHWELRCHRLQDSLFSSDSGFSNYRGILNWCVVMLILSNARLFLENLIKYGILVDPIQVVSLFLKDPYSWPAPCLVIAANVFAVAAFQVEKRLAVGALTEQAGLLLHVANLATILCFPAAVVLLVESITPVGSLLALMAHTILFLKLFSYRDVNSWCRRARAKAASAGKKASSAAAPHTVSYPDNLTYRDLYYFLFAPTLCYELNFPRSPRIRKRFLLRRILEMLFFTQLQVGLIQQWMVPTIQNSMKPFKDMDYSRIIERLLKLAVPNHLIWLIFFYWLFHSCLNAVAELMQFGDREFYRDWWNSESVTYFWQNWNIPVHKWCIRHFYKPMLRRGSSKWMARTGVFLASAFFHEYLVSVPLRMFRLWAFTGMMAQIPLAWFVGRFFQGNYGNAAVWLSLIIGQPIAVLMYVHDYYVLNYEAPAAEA
Assay: human DGAT1 lipid extraction (LE) assay, inhibition of triacylglycerol product formation
Format: biochemical
Conditions: human DGAT1 microsomes from Sf9 cells, read-out: hDGAT LE IC50
Protocol: Human DGAT1 was expressed in Sf9 insect cells using a baculovirus expression system. Microsomes were prepared and used as enzyme for in vitro inhibition testing in either of two formats measuring production of coenzyme A or tridecanoylglycerol product, respectively. All steps were performed at 21-23° C. All data for DGAT1 inhibition by test compounds were collected under conditions where product formation was linear with reaction time.
For inhibition of triacylglycerol product formation, 11 uL reactions were run in white Polyplate-384 (PerkinElmer6007300) starting with a 30 minute pre-reaction incubation of 5 uL of 2.2× enzyme and 1 uL of 100% DMSO containing test compound or control compound, {4-[4-(4-amino-7,7-dimethyl-7H-pyrimido[4,5-b][1,4]oxazin-6-yl)phenyl]cyclohexyl}acetic acid. Some assays were performed with inclusion of didecanoylglycerol in the pre-reaction incubation of test compounds and enzyme. Reactions were initiated after 30 minute pre-reaction incubation via addition of 5 uL of 2.2× substrate. Final reaction conditions consisted of 50 mM HEPES pH 7.5, 2 mM MgCl2, 1 mM CHAPS, 25 uM didecanoylglycerol, 0.5 uM decanoyl-CoA, 0.3 nCi/uL [^14C-]decanoyl-CoA or 0.5 nCi/uL [^3H]-decanoyl-CoA, 0.05-4 ug/mL microsomal protein, and 1% DMSO. Following 60 minute reaction incubation, reactions were stopped with 40 uL of 45% isopropanol and 50 mM sodium carbonate in water and mixed. Extraction of tridecanoylglycerol product was accomplished via addition of 30 uL Microscint-E (Perkin Elmer) and 2 hours of incubation (sealed). Plates were read on a Microbeta Microplate reader Inhibition was normalized to controls containing DMSO or 10 uM {4-[4-(4-amino-7,7-dimethyl-7H-pyrimido[4,5-b][1,4]oxazin-6-yl)phenyl]cyclohexyl}acetic acid. IC50s were fitted using GraphPad Prism to a sigmoidal dose response.

SMILES | IC50
O=C(O)CC1(CC(F)(F)F)CCc2cc(-c3ccc(Nc4cccc(Cl)c4)nn3)ccc2C1=O (single isomer, unassigned) [Example 21, 2-(6-(6-((3-chlorophenyl)amino)pyridazin-3-yl)-1-oxo-2-(2,2,2-trifluoroethyl)-1,2,3,4-tetrahydronaphthalen-2-yl)acetic acid] | ≤ 0.1 µM
Cc1ccc(Nc2ccc(-c3ccc4c(c3)CCC(CC(=O)O)(CC(F)(F)F)C4=O)nn2)cn1 (single isomer, unassigned) [Example 22, 2-(6-(6-(6-methylpyridin-3-ylamino)pyridazin-3-yl)-1-oxo-2-(2,2,2-trifluoroethyl)-1,2,3,4-tetrahydronaphtha-len-2-yl)acetic acid] | ≤ 0.1 µM
O=C(O)CC1(CC(F)(F)F)CCc2cc(-c3ccc(Nc4ccc(C(F)(F)F)nc4)nn3)ccc2C1=O (single isomer, unassigned) [Example 23, 2-(1-oxo-2-(2,2,2-trifluoroethyl)-6-(6-(6-(trifluoromethyl)pyridin-3-ylamino)pyridazin-3-yl)-1,2,3,4-tetrahydronaphthalen-2-yl)acetic acid] | ≤ 0.1 µM
O=C(O)CC1(CC(F)(F)F)CCc2cc(-c3ccc(Nc4ccc(C(F)(F)F)nc4)nn3)ccc2C1=O (single isomer, unassigned) [Example 24, 2-(1-oxo-2-(2,2,2-trifluoroethyl)-6-(6-(6-(trifluoromethyl)pyridin-3-ylamino)pyridazin-3-yl)-1,2,3,4-tetrahydronaphthalen-2-yl)acetic acid] | 0.5 to 10 µM
Cc1cnc(Nc2ccc(-c3ccc4c(c3)CCC(CC(=O)O)(CC(F)(F)F)C4=O)nn2)s1 (single isomer, unassigned) [Example 25, 2-(6-(6-(5-methylthiazol-2-ylamino)pyridazin-3-yl)-1-oxo-2-(2,2,2-trifluoroethyl)-1,2,3,4-tetrahydronaphthalen-2-yl)acetic acid] | 0.5 to 10 µM

The next lines start with the values.

IC50 | SMILES
0.1 to 0.5 µM | O=C(O)CC1(CC(F)(F)F)CCc2cc(-c3cnc(Nc4cccc(Cl)c4)s3)ccc2C1=O (single isomer, unassigned) [Example 26, 2-(6-(2-(3-Chlorophenylamino)thiazol-5-yl)-1-oxo-2-(2,2,2-trifluoroethyl)-1,2,3,4-tetrahydronaphthalen-2-yl)acetic acid]
0.1 to 0.5 µM | O=C(O)CC1(CC(F)(F)F)CCc2cc(-c3cnc(Nc4ccc(C(F)(F)F)nc4)s3)ccc2C1=O (single isomer, unassigned) [Example 27, 2-(1-oxo-2-(2,2,2-trifluoroethyl)-6-(2-(6-(trifluoromethyl)pyridin-3-ylamino)thiazol-5-yl)-1,2,3,4-tetrahydronaphthalen-2-yl)acetic acid]
≤ 0.1 µM | O=C(O)CC1(CC(F)(F)F)CCc2cc(-c3cnc(Nc4ccc(C(F)(F)F)nc4)s3)ccc2C1=O (single isomer, unassigned) [Example 28, 2-(1-oxo-2-(2,2,2-trifluoroethyl)-6-(2-(6-(trifluoromethyl)pyridin-3-ylamino)thiazol-5-yl)-1,2,3,4-tetrahydronaphthalen-2-yl)acetic acid]
